In series [1] the target is type 2 somatostatin receptor (sstr2), human (human) (UniProt P30874). The experiment in a line: cell-based or functional assay.
The test system of series [2] is THP-1 cells. The experiment in a line: MCP-1 induced THP-1 cell migration, Transwell assay. In kind it is cell-based, human. On the procedure: Leukocyte migration was measured using the 96-well format micro Transwell® assay system from Neuroprobe (Gaithersburg, Md., USA). In principle, this assay consists of two chambers separated by a porous membrane. The chemoattractant is placed in the lower compartment and the cells are placed in the upper compartment.
The method was performed essentially as previously described (Reckless & Grainger (1999) Biochem. J. 340:803-11).
First, the cell suspension to be placed in the upper compartment was prepared. The THP-1 cells were pelleted by centrifugation (770×g; 4 mins) and washed with Geys Balanced Salt Solution with 1 mg/ml BSA (GBSS+BSA). This wash was then repeated, and the cells re-pelleted before being resuspended in a small volume of GBSS+BSA for counting, for example using a standard haemocytometer.
The volume of GBSS+BSA was then adjusted depending on the number of cells present so that the cells were at final density of 4.45×10^6 cells per ml of GBSS+BSA. This ensured that there were 100,000 THP-1 cells in each 25 μl of the solution to be placed in the upper chamber of the plate.
The suspension of THP-1 cells at 4.45×10^6 cells/ml was divided into three pots. […] To the second pot, the BSCI was added at the same concentration as in the first pot, but additionally the sstr2 antagonist was also added (for example BIM 23454 [Tulipano et al. (2002) 143:1218-24] or BIM 23627 were added at 66 nM final concentration from a stock solution in GBSS). To the third pot, GBSS+BSA plus vehicle as appropriate was added so that the volumes in three pots are equal, acting as a control.
Next, the chemoattractant solution to be placed in the lower compartment was prepared. MCP-1 was diluted in GBSS+BSA to give a final concentration of 25 ng/ml (after all additions). Note that, as recommended by Frow et al (Med. Res. Rev. 24:276-98) this is the concentration of MCP-1 which induces maximal migration in this system. This solution was divided into three pots, as for the cell suspension. To one pot, the BSCI was added to the same final concentration as was added to the cell suspension, in the second pot the BSCI and the sstr2 antagonist were both added at the same concentration as previously added to the cell suspension, while to the remaining pot GBSS+BSA plus vehicle as appropriate was added so that the volumes in the three pots were equal.
Once the chemoattractant solutions for the lower wells and cell solutions for the upper chambers were prepared, the migration chamber was assembled. 29 μl of the appropriate chemoattractant solution was placed into the lower well of the chamber. Assays were performed with at least triplicate determinations of each condition. Once all the lower chambers were filled, the porous membrane was applied to the chamber in accordance with the manufacturer's instructions. Finally, 25 μl of the appropriate cell solution was applied to each upper chamber. A plastic lid was placed over the entire apparatus to prevent evaporation.
The assembled chamber was incubated at 37° C., 5% CO2, for 2 hours.
At the end of the incubation, the liquid cell suspension was gently removed from the upper chamber, 20 μl of ice-cold 20 mM EDTA in PBS was added to the upper chamber, and the apparatus was incubated at 4° C. for 15 mins. This procedure caused any cells adhering to the underside of the membrane to fall into the lower chamber.
After this incubation the filter was carefully flushed with GBSS+BSA to wash off the EDTA, and then the filter was removed.
The number of cells migrated into the lower chamber under each condition can then be determined by a number of methods, including direct counting, labelling with fluorescent or radioactive markers or through the use of a vital dye. Typically, we utilised the vital dye MTT.

For series [3], the system named is fetal rat pituicytes. The series can be described thus: Rat pituicyte GH suppression assay. In kind it is cell-based. The source says:
(§1) Two different assays for “classical” sstr2 functions were adopted: (1) cultured foetal rat pituitary cells secreted growth hormone which is inhibited by sstr2 agonists in a dose-dependent fashion and (2) selected glucose-sensitive sub-clones of the human Panc-1 cell line secrete insulin which is inhibited by sstr2 agonists in a dose-dependent fashion.
Methods: Cultures of fetal rat pituicytes were established exactly as previously described (Murray et al. (2004) J. Clin. Endocrinol. Metab. 89:3027-32) by enzymatic dispersion. After 48 hrs in low glucose DMEM plus 10% FCS, cells in 48 well plates (5×10^4 cells per well) were washed for 4 hrs in serum-free DMEM and then incubated with test agents at various concentrations for a further 24 hrs in serum-free DMEM. At the end of this period, the conditioned medium was harvested, any cell debris removed by centrifugation and assayed for GH using a commercially available ELISA (Linco; cat# EZRMGH-45K) in accordance with the manufacturer's instructions.
(§2) Results were reported as the mean±SD, expressed as the fold change from cells in the presence of vehicle only.

Series [4] concerns rat peripheral blood leukocytes. The experiment in a line: Rat chemokine-induced PBMC migration assay. Type of series: cell-based. The following applies: Table 3.
The test system of series [5] is Panc-2H4 cells. The series can be described thus: Human Panc-2H4 insulin suppression assay. Type of series: cell-based. The following applies: Table 3.
Source text: as §1
Glucose-sensitive sub-clones of the human Panc-1, a cell line derived from a pleiomorphic epithelioid carcinoma of the exocrine pancreas, were obtained essentially as described by Hamil et al. (2008) Biomed. Sci. Instrum. 44:441-6. Briefly, Panc-1 cells were subcultured in 24 well plates, and the medium was supplemented with an additional 5% glucose. […] The resulting sub-lines were then tested for glucose sensitivity by preparing wells of a 96-well plate (5×10^4 cells per well) which were then exposed to cultured medium containing a range of glucose concentrations (low glucose DMEM, DMEM, DMEM+1% glucose, DMEM+2.5% glucose and DMEM+5% glucose). After 24 hrs incubation, the conditioned medium was collected and assayed for insulin secretion by ELISA (Linco; cat# EZHI-14K) in accordance with the manufacturer's instructions.
Further 96 well plates were prepared using Panc-2H4 (5×10^4 cells per well) in DMEM. After 24 hrs, the medium was switched to DMEM+5% glucose containing various test agents at various concentrations (triplicate wells per condition). After a further 24 hrs, the conditioned medium was harvested and the concentration of insulin was determined by ELISA as described above.
as §2

Series [6] deals with T1, sstr2 (Homo sapiens, UniProt P30874).
T1 construct: with 1×10^6 THP-1 cells in Gey's Balanced Salt Solution; endogenous in cells; host or cells: THP-1 cells (whole cells, 4° C.)
T1 sequence (P30874 whole entry): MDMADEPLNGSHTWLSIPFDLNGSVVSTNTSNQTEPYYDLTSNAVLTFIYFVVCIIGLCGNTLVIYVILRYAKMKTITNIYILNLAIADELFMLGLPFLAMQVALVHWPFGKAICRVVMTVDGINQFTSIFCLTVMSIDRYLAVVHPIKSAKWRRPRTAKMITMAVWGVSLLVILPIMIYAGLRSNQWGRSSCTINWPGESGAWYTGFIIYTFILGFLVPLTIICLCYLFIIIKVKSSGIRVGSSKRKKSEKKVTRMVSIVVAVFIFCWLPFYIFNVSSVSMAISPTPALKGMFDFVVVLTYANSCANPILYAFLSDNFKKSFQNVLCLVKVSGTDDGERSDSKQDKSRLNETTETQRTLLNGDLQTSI
The series can be described thus: Equilibrium binding of [3H]-BN83250 to THP-1 cells. As to the method: Methods: [^3H]-BN83250 was synthesesized from (S,E)-3-(2′,2′-dimethyldodec-4′-enoylamino)-caprolactam by catalytic hydrogenation using tritium gas over a palladium catalyst (CRB Ltd, Cleveland, UK), yielding the tritiated product at a concentration of […] in ethanol with a specific activity of 220 Ci/mmol. The (S,E)-3-(2′,2′-dimethyldodec-4′-enoylamino)-caprolactam was prepared as follows: (S,S)-3-amino-caprolactam hydro-pyrrolidine-5-carboxylate (10 mmol) and Na2CO3 (30 mmol) in water (30 ml) were added to a solution of 2,2-dimethyl-dodec-4-enoyl chloride (10 mmol) in dichloromethane (30 ml) at ambient temperature and the reaction was stirred for 12 hours. The organic layer was then separated and the aqueous phase was extracted with additional dichloromethane (2×25 ml). The combined organic layers were dried over Na2CO3 and reduced in vacuo. The residue was purified by silica column chromatography (1:1 EtOAc:hexanes to EtOAc) to give […]-3-(2′,2′-dimethyl-dodec-4′-enoyl)amino-caprolactam as a colourless oil (2.12 g, 63%). The radiolabelled compound was stored in the dark at 4° C. until required. Prior to use the specific activity was adjusted by addition of unlabelled BN83250.
For the analysis of binding, individual reactions were set up (in triplicate for each condition), with 1×10^6 THP-1 cells in Gey's Balanced Salt Solution, 10 nM [^3H]-BN83250 (at 50 Ci/mmol) and various concentrations of (S)-3(2′2′-dimethylpropionoylamino)-tetrahydropyridin-2-one (10 pM to 10 μM). Excess (100 μM) unlabelled BN83250 was used to determine the level of non-specific binding. After 2 hours at 4° C. (conditions previously shown to achieve equilibrium binding, and which prevent uptake of the radioligand that would result in an over-estimate of binding) excess label was washed away by centrifugation (3 washes with 5 ml of Gey's Balanced Salt Solution) and the bound radioactivity was determined by scintillation counting of the solubilised cell pellet.

Series [7] concerns 5HT2a. The following applies: rodents, cited from earlier work.
For series [8], the system named is leukocytes. The experiment in a line: Chemokine-induced leukocyte migration (cells not specified). In kind it is cell-based. The following applies: description b37, b38.
The target in series [9] is T2, 5HT2a receptor (Homo sapiens, UniProt P28223).
T2 construct: purchased Sigma
T2 sequence (P28223 whole entry): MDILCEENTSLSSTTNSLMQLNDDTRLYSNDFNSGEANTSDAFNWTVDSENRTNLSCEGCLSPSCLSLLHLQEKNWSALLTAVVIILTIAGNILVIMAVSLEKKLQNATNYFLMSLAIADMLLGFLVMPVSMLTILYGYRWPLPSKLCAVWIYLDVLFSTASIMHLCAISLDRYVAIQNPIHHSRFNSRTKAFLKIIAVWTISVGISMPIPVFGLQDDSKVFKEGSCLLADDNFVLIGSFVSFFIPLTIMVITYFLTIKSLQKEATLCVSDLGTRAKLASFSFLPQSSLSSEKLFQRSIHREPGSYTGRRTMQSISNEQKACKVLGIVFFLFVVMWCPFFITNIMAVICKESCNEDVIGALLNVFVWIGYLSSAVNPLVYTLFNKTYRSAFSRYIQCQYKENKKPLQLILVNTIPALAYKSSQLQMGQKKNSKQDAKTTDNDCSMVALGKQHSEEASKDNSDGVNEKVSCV
The series can be described thus: [3H]-ketanserin binding to 5HT2a receptor membranes. As to the method:
Methods: Radioligand binding experiments were performed with commercially available membrane preparations from cells expressing the 5HT2a receptor (Sigma) in accordance with the manufacturer's instructions. [^3H]-ketanserin was used as the radioligand probe (according to the method of Leysen et al. (1988) Pharmacol. Exp. Therap. 244:310-21) at 1 nM concentration (0.05 μCi per reaction). Experiments were performed in triplicate, and non-specific binding was determined in the presence of an excess (10 μM) of metergoline (a relatively non-specific ergot-derived serotonin receptor antagonist).

Series [10] deals with Jurkat T cells. The series can be described thus: SDF-1α induced migration of parental Jurkat T cells. In kind it is cell-based, human. As to the method: Results: The level of the SDF-1α, receptor CXCR4 was similar on Jurkat-D3B and the parental Jurkat T cell line. Furthermore, the Jurkat-D3B cells responded to SDF-1α in a Transwell® chemotaxis assay (see Example 1 for the methodology employed) over a similar concentration range to the parental cell line.
Jurkat T cells and Jurkat-D3B cells were induced to migrate in response to 100 ng/ml SDF-1α (R&D systems; the concentration of SDF-1α which induced maximal cell migration in both lines). The BSCI BN83250 was then added at various concentrations between 0 nM and 1000 nM (each in triplicate) to both the upper and lower compartments (at the same concentration in each compartment, so as not to create a gradient of BSCI concentration). DMSO (1% final concentration) was used as the vehicle, and was present in all wells at equal concentration.

For series [11], the target named is α2-adrenoreceptor. The following applies: radioligand RS-79948-197; Grainger et al. (2005); read-out: Apparent affinity at α2-adrenoreceptor; cited from earlier work.
For series [12], the target named is T3, α2-adrenoreceptor.
T3 construct: other: 5 nM [3H]-DHE
The series can be described thus: [3H]-dihydroergocryptine binding to α2-adrenoreceptor membranes. The following applies: 5 nM [3H]-DHE. On the procedure: Methods: Radioligand binding experiments were performed with commercially available membrane preparations from cells expressing the α2-adrenoreceptor (Sigma) in accordance with the manufacturer's instructions. […] Experiments were performed in triplicate, and non-specific binding was determined in the presence of an excess (10 μM) of oxymetazoline.

Series [13] deals with platelets. The series can be described thus: ADP-mediated platelet activation/aggregation. In kind it is cell-based.
The subject of series [14] is α2-adrenoreceptor. The series can be described thus: Blood pressure. Type of series: in vivo. The following applies: description b37.

Read-outs that look alike come from different tables or passages of the source.

type 2 somatostatin receptor (sstr2), human (human), sequence (P30874 whole entry): as the sequence (P30874 whole entry) above

With cortistatin (peptide), the ED50 for inhibition of MCP-1 induced THP-1 cell migration in series [1] is 75 nM.
On to `O=C1NCCCC[C@@H]1NC(=O)C12CC3CC(CC(C3)C1)C2` [BN83470, (S)-3-(admantane-1′-carbonylamino)-caprolactam], for which the “Human chemokine-induced THP-1 migration assay Max effect” value in series [2] (Table 3) came to 100%. The “Inhibition of GH release, in words” value in series [3] is on record as “inhibited GH release only at much higher concentrations”. Further, the EC50 in series [3] (Table 3, read-out: Rat pituicyte GH suppression assay ED50) was 270 nM; in [5] (read-out: Human Panc-2H4 insulin suppression assay ED50), greater than 1000 nM. Further, the “Rat pituicyte GH suppression assay Max effect” value in [3] (Table 3, suppression compared to vehicle) amounted to 56%. The “Rat chemokine-induced PBMC migration assay Max effect” value in [4] came to 100%. Further, in [5] (suppression compared to vehicle), the “Human Panc-2H4 insulin suppression assay Max effect” value is less than 10%. For the same molecule, the “Competition with BN83250 binding to sstr2, in words” value in series [6] is listed as “compete with BN83250 binding to sstr2 to a similar extent”.
For the molecule `COc1cc(Br)c(OC)c2c1[C@H](CN)C2` [TCB-2], the figures for the “Head twitching by classical 5HT2a agonists” value in series [7] and in series [7] (listed as TCB2) were “induce this classical effect” and “powerfully induces head twitch”, respectively. Also, the “Effect on chemokine-induced leukocyte migration, in words” value in [8] is “no effect on chemokine-induced leukocyte migration”.
`CN1C[C@H](C(=O)O)C=C2c3cccc4[nH]cc(c34)C[C@H]21` [lysergic acid] gave a Ki in series [9] of 49 ± 12 nM. In addition, the “Inhibition of MCP-1 induced THP-1 cell migration, in words” value in series [2] (MCP-1 25 ng/ml) is “neither agent inhibits”. For the same molecule, the “Inhibition of SDF-1α induced migration of Jurkat T cells, in words” value in series [10] is “neither agent inhibits”.
On to `NC(=O)C1CCC[C@H]2CN3CCc4c([nH]c5ccccc45)[C@@H]3C[C@H]12` (stereo partly drawn) [Yohimban-16-amide], for which, in series [11], the Ki is 770 nM. Moreover, the “Inhibition of SDF-1α induced migration of Jurkat T cells, in words” value in series [10] is listed as “neither agent inhibits”. The “Apparent Ka, inhibition of [3H]-DHE binding” value in series [12] came to 89 ± 13 nM. Also, the “Effect on ADP-mediated platelet activation/aggregation” value in [13] is listed as “no effect on the activation of platelets in response to ADP”.
Take `COC(=O)[C@H]1[C@H]2C[C@@H]3c4[nH]c5cc(OC)ccc5c4CCN3C[C@H]2C[C@@H](OC(=O)c2cc(OC)c(OC)c(OC)c2)[C@@H]1OC` [reserpine]: in series [14], the “Effect on blood pressure” value is “powerfully lowers blood pressure”. Moreover, the “Effect on chemokine-induced leukocyte migration, in words” value in series [8] was “no effect on chemokine-induced leukocyte migration”.

Source of the values: patent US20120053076A1, “METHODS FOR IDENTIFICATION” (Cambridge Enterprise Limited, priority 2009, published 2012).
